Experimental data published in patent US20100197687A1, “Indoles Useful in the Treatment of Inflammation” (priority 2005, published 2010).
Where a name gives a salt, the structure may show the parent alone.

Target: T1, mPGES-1 (Homo sapiens, UniProt O14684)
T1 construct: made in house; host or cells: E. coli
T1 sequence (O14684 1-152): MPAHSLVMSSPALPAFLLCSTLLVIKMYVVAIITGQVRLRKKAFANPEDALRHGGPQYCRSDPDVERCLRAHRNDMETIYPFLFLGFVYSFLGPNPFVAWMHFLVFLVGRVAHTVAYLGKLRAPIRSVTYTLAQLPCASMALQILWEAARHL
Assay: mPGES-1 biological test (conversion of PGH2 to PGE2, HPLC read-out)
Type: biochemical
Details: mPGES-1 expressed in E. coli, membrane fraction; 25 min pre-incubation with inhibitor, 60 s with PGH2, room temperature; read-out: IC50 (inhibition of mPGES-1)
Method: In the assay mPGES-1 catalyses the reaction where the substrate PGH2 is converted to PGE2. mPGES-1 is expressed in E. coli and the membrane fraction is dissolved in 20 mM NaPi-buffer pH 8.0 and stored at −80° C. In the assay mPGES-1 is dissolved in 0.1M KPi-buffer pH 7.35 with 2.5 mM glutathione. The stop solution consists of H2O/MeCN (7/3), containing FeCl2 (25 mM) and HCl (0.15 M). The assay is performed at room temperature in 96-well plates. Analysis of the amount of PGE2 is performed with reversed phase HPLC (Waters 2795 equipped with a 3.9×150 mm C18 column). The mobile phase consists of H2O/MeCN (7/3), containing TFA (0.056%), and absorbance is measured at 195 nm with a Waters 2487 UV-detector.
The following is added chronologically to each well: • 1. 100 μL mPGES-1 in KPi-buffer with glutathione. Total protein concentration: 0.02 mg/mL. • 2. 1 μL inhibitor in DMSO. Incubation of the plate at room temperature for 25 minutes. • 3. 4 μL of a 0.25 mM PGH2 solution. Incubation of the plate at room temperature for 60 seconds. • 4. 100 μL stop solution. • 180 μL per sample is analyzed with HPLC.

Row | IC50 | SMILES
1 | 2.6 µM | CC(C)Oc1ccc(-n2c(C(=O)O)c(CN3CCOCC3)c3cc(-c4ccc(C(C)(C)C)cc4)ccc32)cc1 [Example 2, 5-(4-tert-Butylphenyl)-1-(4-isopropoxyphenyl)-3-morpholin-4-ylmethylindole-2-carboxylic acid]
2 | 0.56 µM | CC(C)Oc1ccc(-n2c(C(=O)O)c(CN(C)C)c3cc(-c4ccc(C(C)(C)C)cc4)ccc32)cc1 [Example 8, 5-(4-tert-Butylphenyl)-3-dimethylaminomethyl-1-(4-isopropoxyphenyl)indole-2-carboxylic acid]
3 | 2.1 µM | CC(C)Oc1ccc(-n2c(C(=O)O)c(CNC(CO)CO)c3cc(-c4ccc(C(F)(F)F)cn4)ccc32)cc1 [Example 9, 3-[(1,3-dihydroxypropan-2-ylamino)methyl]-1-(4-isopropoxyphenyl)-5-(5-trifluoromethylpyridin-2-yl)indole-2-carboxylic acid dihydrochloride]
4 | 0.78 µM | CC(C)(C)c1ccc(-c2ccc3c(c2)cc(CCC(=O)O)n3-c2ccc(OC3CCCC3)cc2)cc1 [Example 29, 3-[5-(4-tert-Butylphenyl)-1-(4-cyclopentyloxyphenyl)indol-2-yl]-propionic acid]
5 | 3.2 µM | CC(C)Oc1ccc(-n2c(CC(=O)O)cc3cc(Oc4ccc(Cl)cc4)ccc32)cc1 [Example 32, [5-(4-Chlorophenoxy)-1-(4-isopropoxyphenyl)indol-2-yl]acetic acid]
